Data published in patent publication US8927580B2, “Thiosemicarbazone compounds and use in the treatment of cancer” (Oncochel Therapeutics LLC, priority 2010, dated 2015).
Counter-ions that a name gives are not always drawn. Each block holds one compound with its values, some of them ahead of it.

Legend:
[1] = test system: PANC 1 pancreatic cancer cells; experiment: MTT proliferation assay, PANC 1; format: cell-based; settings: Homo sapiens; PANC 1, MTT, 72 h
Method: (§1) The pancreatic cancer cell lines, including MIAPaCa-2, PANC 1, CAPAN-2 and CFPAC-1 were a generous gift from Prof. Andrew Biankin (Garvan Institute, NSW, Australia). The MIAPaCa-2, PANC 1 and CFPAC-1 cell lines were grown in DMEM medium (Invitrogen) and CAPAN-2 cells were grown in McCoy's medium (Invitrogen). All media was supplemented with 10% (v/v) fetal calf serum (Invitrogen), 1% (v/v) non-essential amino acids (Invitrogen), 1% (v/v) sodium pyruvate (Invitrogen), 2 mM L-glutamine (Invitrogen), 100 μg/mL of streptomycin (Invitrogen), 100 U/ml penicillin (Invitrogen), and 0.28 μg/mL of fungizone.
(§2) To further examine the spectrum of anti-proliferative activity, Dp4cycH4mT was tested against pancreatic cancer in vitro, performing MTT proliferation assays with PANC 1, MIAPaCa-2, CFPAC-1 and CAPAN-2 pancreatic cancer cells. As a comparison, currently used treatments for pancreatic cancer including gemcitabine and 5-fluorouracil were also tested. The iron chelator, DFO, was included as a positive control.
(§3) Table 2A. Anti-proliferative activity of Dp4cycH4mT against pancreatic cancer cell lines. Growth and antiproliferative activity IC50 (μM) values of Dp4cycH4mT in a variety of pancreatic cell lines and in comparison to DFO and the clinically used drugs gemcitabine and 5-fluorouracil as determined by the MTT assay. Cells were seeded and allowed to attach to wells for 24 h and then incubated for 72 h at 37° C. with control medium or the chelators. Results are mean±SD (3 experiments).
as §3, with “2B.” for “2A.”, “IC90” for “Growth and antiproliferative activity IC50”

[2] = test system: CFPAC-1 pancreatic cancer cells; experiment: MTT proliferation assay, CFPAC-1; format: cell-based; settings: Homo sapiens; CFPAC-1, MTT, 72 h
Method: as §1, §2, §3
as §3, with “2B.” for “2A.”, “IC90” for “Growth and antiproliferative activity IC50”

[3] = test system: MIAPaCa-2 pancreatic cancer cells; experiment: MTT proliferation assay, MIAPaCa-2; format: cell-based; settings: Homo sapiens, MIA PaCa-2; MIAPaCa-2, MTT, 72 h
Method: as §1, §2, §3
as §3, with “2B.” for “2A.”, “IC90” for “Growth and antiproliferative activity IC50”

[4] = test system: CAPAN-2 pancreatic cancer cells; experiment: MTT proliferation assay, CAPAN-2; format: cell-based; settings: Homo sapiens; CAPAN-2, MTT, 72 h
Method: as §1, §2, §3
as §3, with “2B.” for “2A.”, “IC90” for “Growth and antiproliferative activity IC50”

[5] = test system: SK-N-MC neuroepithelioma cell line; experiment: MTT anti-proliferative assay in SK-N-MC cells; format: cell-based, human; settings: 72 h at 37° C., mean±SD (3 experiments)
Method: The cells were maintained in minimum essential media (MEM; Invitrogen, CA, USA) which contained 10% fetal calf serum (FCS; JRH Biosciences, Kansas, USA), 1% non-essential amino acids (Gibco, Victoria, Australia), 1% penicillin/streptomycin/glutamine (Gibco, VIC, Australia) and fungizone ([…]; Squibb Pharmaceuticals, Montreal, Canada).
The ability of the compounds to inhibit cellular proliferation was assessed initially in SK-N-MC cells by the MTT assay.
Table 1. […] Cells were seed and allowed to attach to wells for 24 h and then incubated for 72 h at 37° C. with control medium or the chelators.

[6] = test system: SK-N-MC neuroepithelioma cells; experiment: Iron uptake assay (59Fe uptake from 59Fe-transferrin); format: cell-based, human; settings: 25 μM chelator, 3 h at 37° C., 59Fe-Tf
Method: Cells were cultured in the same way as for the iron efflux experiments. […] At the end of the incubation the culture dishes were placed on ice, the media aspirated, and the cells washed 4 times with ice cold PBS. Protease (1 mL; 1 mg/mL; Sigma-Aldrich, NSW, Australia) solution was added to each plate and allowed to incubate on ice for 30 min. This facilitated the removal of membrane bound ^59Fe-Tf. Cells were then scraped from the plastic surface using a Teflon spatula and collected in Eppendorf tubes. These were centrifuged at 10000 rpm and 4° C. for 3 min. The supernatant was then transferred into counting tubes and the cell pellet resuspended in PBS before also being transferred into another set of counting tubes. Radioactivity was measured using a Wallac Wizard 3″ Gamma Counter (PerkinElmer, MA, USA). Results are expressed as average ^59Fe content of the cellular fraction as a percentage of the control value.

[7] = test system: SK-N-MC neuroepithelioma cells; experiment: Iron efflux assay (59Fe release from pre-labeled cells); format: cell-based, human; settings: 25 μM chelator, 3 h at 37° C.
Method: The culture dishes were then placed on ice, the supernatant containing excess ^59Fe-Tf was aspirated and the cells washed 4 times with ice-cold PBS. […] After 3 h the culture dishes were again placed on ice, the media was collected in counting tubes and this provided a measurement of released ^59Fe. Ice-cold PBS (1 mL) was added to plates containing cells and cells were scraped from the plastic surface using a Teflon spatula and also collected in counting tubes. These tubes represent the intracellular ^59Fe content. Results are expressed as total ^59Fe released as a percentage of total ^59Fe present. Radioactivity was measured using a Wallac Wizard 3″ Gamma Counter (PerkinElmer, MA, USA).

[8] = mouse, in vivo
[9] = test system: PANC 1 human pancreatic carcinoma; experiment: PANC 1 xenograft in nude mice: tumour growth; format: in vivo, nude mice (BALBc nu/nu)
Method: FIG. 5). […] (5 mg/kg) or vehicle control.

[10] = test system: DMS-53 human lung carcinoma; experiment: DMS-53 xenograft in nude mice, i.v. administration: tumour growth; format: in vivo, nude mice (BALBc nu/nu)
[11] = DMS-53 xenograft i.v. study: body and organ weights, haematology, histology; format: in vivo, nude mice (BALBc nu/nu); settings: for HCT / HGB / PLT / RBC / WBC / Body weight (% of initial weight) / Brain weight / Heart weight / Kidney weight / Liver weight / Spleen weight / weight loss (% of initial body weight): i.v.; for HCT / HGB / PLT / RBC / WBC: average; for weight loss (% of initial body weight): after 25 days
[12] = test system: DMS-53 human lung carcinoma; experiment: DMS-53 xenograft in nude mice, oral gavage: tumour growth; format: in vivo, nude mice (BALBc nu/nu); settings: for Tumour weight: 21 days; for net tumour size (% of initial tumour volume): after 21 days
[13] = DMS-53 xenograft oral study: body and organ weights, haematology, biochemistry, histology; format: in vivo, nude mice (BALBc nu/nu)

MYOCARDIUM Fibrosis [8]: − | MYOCARDIUM HP (histopathological changes) [8]: N | SPLEEN HPC (score for the presence of haematopoietic cells in the splenic red pulp) [8]: N | iron deposits in the kidney [8]: iron deposits were observed
Structure (SMILES): CN(C(=S)NN=C(c1ccccn1)c1ccccn1)C1CCCCC1 [Dp4cycH4mT.HCl, di-2-pyridylketone 4-cyclohexyl-4-methyl-3-thiosemicarbazone]
average tumour size (% of the original tumour size) ([9]; after 6 weeks, 5 mg/kg i.v. 5 days/week): 112% | final tumour weight ([9]; after 43 days, 5 mg/kg i.v.): 40 ± 12 mg

histology of the liver, spleen, kidney, brain or tumour (H & E) vs control ([11]; 2 weeks i.v., Dp44mT 0.75 mg/kg, Dp4e4mT.HCl 4 and 6 mg/kg): no significant differences | myocardial lesions (Gomori-Trichrome stain) ([11]; 2 weeks i.v., Dp44mT 0.75 mg/kg, Dp4e4mT.HCl 4 or 6 mg/kg): did not induce myocardial lesions | change in red blood cell count, haemoglobin or white blood cell count ([11]; after 2 weeks, Dp44mT 0.75 mg/kg, Dp4e4mT.HCl 1.5, 4 or 6 mg/kg i.v.): no significant change | HCT ([11]; 1.5 mg): 0.4 | HGB ([11]; 1.5 mg): 150.60 g/L | PLT ([11]; 1.5 mg): 766.4 10 × 9 cells/L | RBC ([11]; 1.5 mg): 8.76 10 × 12 cells/L | WBC ([11]; 1.5 mg): 3.34 10 × 9 cells/L | Brain weight ([11]; 1.5 mg/kg): 0.26 ± 0.13 g | Heart weight ([11]; 1.5 mg/kg): 0.1 ± 0.004 g | Kidney weight ([11]; 1.5 mg/kg): 0.26 ± 0.01 g | Liver weight ([11]; 1.5 mg/kg): 1.01 ± 0.02 g | Spleen weight ([11]; 1.5 mg/kg): 0.11 ± 0.01 g | HCT ([11]; 4 mg): 0.47 | HGB ([11]; 4 mg): 153.75 g/L | PLT ([11]; 4 mg): 1224.5 10 × 9 cells/L | RBC ([11]; 4 mg): 10.74 10 × 12 cells/L | WBC ([11]; 4 mg): 2.94 10 × 9 cells/L | Brain weight ([11]; 4 mg/kg): 0.36 ± 0.01 g | Heart weight ([11]; 4 mg/kg): 0.1 ± 0.01 g | Kidney weight ([11]; 4 mg/kg): 0.26 ± 0.01 g | Liver weight ([11]; 4 mg/kg): 1.03 ± 0.02 g | Spleen weight ([11]; 4 mg/kg): 0.08 ± 0.003 g | HCT ([11]; 6 mg): 0.41 | HGB ([11]; 6 mg): 132.33 g/L | PLT ([11]; 6 mg): 1238 10 × 9 cells/L | RBC ([11]; 6 mg): 9.33 10 × 12 cells/L | WBC ([11]; 6 mg): 4.63 10 × 9 cells/L | Brain weight ([11]; 6 mg/kg): 0.36 ± 0.03 g | Heart weight ([11]; 6 mg/kg): 0.11 ± 0.01 g | Kidney weight ([11]; 6 mg/kg): 0.27 ± 0.01 g | Liver weight ([11]; 6 mg/kg): 1.1 ± 0.08 g | Spleen weight ([11]; 6 mg/kg): 0.089 ± 0.01 g | myocardial lesions (Gomori-Trichrome stain) ([13]; Dp44mT 0.75 mg/kg, Dp4e4mT.HCl 3 weeks at 2.5, 5, 7.5 and 10 mg/kg oral): did not induce myocardial lesions | histology of the liver, spleen, kidney, brain or tumour (H & E) vs control ([13]; Dp44mT 2 weeks at 0.75 mg/kg, Dp4e4mT.HCl 3 weeks at 2.5, 5, 7.5 and 10 mg/kg oral): no significant differences | Total Iron-Binding Capacity (TIBC) ([13]; oral gavage 21 days, 5 mg/kg): 53.1 ± 1.2 µmol/L | Alkaline Phosphatase (ALP) ([13]; oral gavage 21 days, 10 mg/kg): 89.5±4.5 U/L
Structure (SMILES): CCN(C)C(=S)NN=C(c1ccccn1)c1ccccn1 [Dp4e4mT.HCl, di-2-pyridylketone 4-ethyl-4-methyl-3-thiosemicarbazone]
Tumour weight ([10]; 1.5 mg/kg): 0.48 ± 0.6 g | Tumour weight ([10]; 4 mg/kg): 0.11 ± 0.09 g | Tumour weight ([10]; 6 mg/kg): 0.04 ± 0.03 g | Body weight (% of initial weight) ([11]; 1.5 mg/kg): 95.14 ± 0.97 % initial weight | Body weight (% of initial weight) ([11]; 4 mg/kg): 99.41 ± 1.75 % initial weight | weight loss (% of initial body weight) ([11]; 4 mg/kg): 0.6% | Body weight (% of initial weight) ([11]; 6 mg/kg): 93.38 ± 3.96 % initial weight | weight loss (% of initial body weight) ([11]; 6 mg/kg): 7% | Tumour weight ([12]; 2.5 mg/kg): 0.63 g | net tumour size (% of initial tumour volume) ([12]; 2.5 mg/kg): 645% | net tumour size (% of initial tumour volume) ([12]; 5 mg/kg): 733% | Tumour weight ([12]; 10 mg/kg): 0.46 g | Body weight (% initial) ([13]; oral, 10 mg/kg): 94 % initial

More lines, now with the values behind:

Structure (SMILES): O=c1[nH]cc(F)c(=O)[nH]1 [5-fluorouracil]
IC50 [1]: 62.3 ± 6.5 µM | IC90 [1]: > 20 µM | IC50 [2]: 41.2 ± 1.1 µM | IC90 [2]: > 40 µM | IC50 [3]: 24.3 ± 6.3 µM | IC90 [3]: > 5 µM | IC50 [4]: 59.2 ± 24.2 µM | IC90 [4]: > 80 µM

Structure (SMILES): CC(=O)N(O)CCCCCNC(=O)CCC(=O)N(O)CCCCCNC(=O)CCC(=O)N(O)CCCCCN [DFO, desferrioxamine]
IC50 [1]: 9.5 ± 1.4 µM | IC90 [1]: > 80 µM | IC50 ([5]; Homo sapiens): 13.4 ± 3.7 µM | cellular 59Fe uptake (% of the control) [6]: 84% | IC50 [2]: 14.7 ± 3.1 µM | IC90 [2]: > 80 µM | IC50 [3]: 38.7 ± 6.2 µM | IC90 [3]: > 80 µM | cellular 59Fe mobilised (59Fe released as percentage of total 59Fe) [7]: 16% | IC50 [4]: 7 ± 5.4 µM | IC90 [4]: > 80 µM

Structure (SMILES): O=C(NN=Cc1c(O)ccc2ccccc12)c1ccncc1 [compound 311, 2-hydroxy-1-naphthylaldehyde isonicotinoyl hydrazone, reference compound]
IC50 [5]: 0.72 ± 0.32 µM | cellular 59Fe uptake (% of the control) [6]: 5%
